Test results as given in ChEMBL document CHEMBL3045406, “Enantioselective Relieving Activity of α-Methylbenzylphenylureas toward Bensulfuron-methyl Injury to Rice (Oryza sativa)” (Biosci Biotechnol Biochem, 1999).

Experiments:
Oryza sativa [1] = test: Relieving activity against bensulfuron-methyl induced injury to Oryza sativa (rice) assessed as growth rate at 10 uM (Rbv = 46 to 53%); format: functional
Oryza sativa [2] = test: Safener indices, ratio of compound effect of Oryza sativa (rice) growth rate to relieving activity against bensulfuron-methyl induced injury to Oryza sativa growth rate at 10 uM
[3] = Hydrophobicity, log K of the compound; format: physicochemical; settings: octanol/water
Oryza sativa [4] = test: Safener indices, ratio of compound effect of Oryza sativa (rice) growth rate to relieving activity against bensulfuron-methyl induced injury to Oryza sativa growth rate at 0.1 uM
Oryza sativa [5] = test: Effect on Oryza sativa (rice) assessed as growth rate at 10 uM relative to control; format: organism-based; settings: in vivo
Oryza sativa [6] = test: Effect on Oryza sativa (rice) assessed as growth rate at 0.1 uM relative to control; format: organism-based; settings: in vivo
Oryza sativa [7] = test: Relieving activity against bensulfuron-methyl induced injury to Oryza sativa (rice) assessed as growth rate at 1 uM (Rbv = 46 to 53%); format: functional
Oryza sativa [8] = test: Relieving activity against bensulfuron-methyl induced injury to Oryza sativa (rice) assessed as growth rate at 0.1 uM (Rbv = 46 to 53%); format: functional
Oryza sativa [9] = test: Safener indices, ratio of compound effect of Oryza sativa (rice) growth rate to relieving activity against bensulfuron-methyl induced injury to Oryza sativa growth rate at 1 uM
Oryza sativa [10] = test: Effect on Oryza sativa (rice) assessed as growth rate at 1 uM relative to control; format: organism-based; settings: in vivo

| SMILES | Activity (Oryza sativa [1]) [%] | Ratio (Oryza sativa [2]) | log K [3] | Ratio (Oryza sativa [4]) | Activity (Oryza sativa [5]) [%] | Activity (Oryza sativa [6]) [%] | Activity (Oryza sativa [7]) [%] | Activity (Oryza sativa [8]) [%] | Ratio (Oryza sativa [9]) | Activity (Oryza sativa [10]) [%] |
| --- | --- | --- | --- | --- | --- | --- | --- | --- | --- | --- |
| C[C@H](NC(=O)Nc1cccc(C(F)(F)F)c1F)c1ccccc1 | 98 | 96 | 0.624 | 51 | 100 | 99 | 92 | 76 | 84 | 98 |
| C[C@@H](NC(=O)Nc1ccccc1F)c1ccccc1 | 76 | 62 | 0.367 | 3 | 77 | 97 | 64 | 47 | 32 | 95 |
| C[C@@H](NC(=O)Nc1cccc(Br)c1)c1ccccc1 | 92 | 85 | 0.512 | 31 | 99 | 100 | 80 | 66 | 59 | 100 |
| C[C@H](NC(=O)Nc1ccc(Cl)cc1)c1ccccc1 | 88 | 74 | 0.439 | 21 | 101 | 103 | 83 | 63 | 64 | 101 |
| C[C@H](NC(=O)Nc1cc(Cl)cc(Cl)c1)c1ccccc1 | 88 | 76 | 0.703 | 46 | 99 | 99 | 80 | 74 | 59 | 100 |
| CCOC(=O)c1cccc(NC(=O)N[C@H](C)c2ccccc2)c1 | 87 | 77 | 0.419 | 15 | 88 | 99 | 74 | 57 | 51 | 94 |
| C[C@H](NC(=O)Nc1ccc(I)cc1)c1ccccc1 | 92 | 85 | 0.556 | 39 | 95 | 99 | 85 | 70 | 70 | 97 |
| C[C@@H](NC(=O)Nc1ccc(C(C)(C)C)cc1)c1ccccc1 | 57 | 42 | 0.673 | 15 | 53 | 100 | 64 | 58 | 35 | 88 |
| CCc1cccc(NC(=O)N[C@@H](C)c2ccccc2)c1 | 82 | 68 | 0.489 | 15 | 86 | 100 | 72 | 58 | 48 | 94 |
| C[C@@H](NC(=O)Nc1cc(C(C)(C)C)ccc1C(C)(C)C)c1ccccc1 | 73 | 43 | 1.001 | 11 | 99 | 100 | 63 | 57 | 23 | 99 |
| CCCc1ccc(NC(=O)N[C@@H](C)c2ccccc2)cc1 | 69 | 50 | 0.602 | 30 | 73 | 97 | 68 | 66 | 47 | 76 |
| Cc1ccc(NC(=O)N[C@@H](C)c2ccccc2)c(F)c1 | 95 | 89 | 0.459 | 53 | 100 | 100 | 87 | 77 | 72 | 99 |
| COc1ccccc1NC(=O)N[C@H](C)c1ccccc1 | 72 | 42 | 0.343 | -1 | 96 | 100 | 55 | 54 | -4 | 105 |
| C[C@@H](NC(=O)Nc1ccccc1C(C)(C)C)c1ccccc1 | 40 | 34 | 0.535 | 15 | 17 | 100 | 61 | 58 | 24 | 95 |
